Calls of active or inactive are those of the source. The calls are words filed in the database; no cut-off is given here.

Drawing on ChEMBL document CHEMBL3727350, “Agents and methods for treating ischemic and other diseases” (2014), this text covers inhibition for 97 compounds.

The target in one assay is Transient receptor potential cation channel subfamily M member 7 (Mus musculus) (UniProt Q923J1). The assay can be described thus: Inhibition of Tet-induced Flag-tagged mouse TRPM7 expressed in HEK293 cells assessed as inhibition of channel-mediated cell death in presence of Mg2+ incubated for 24 to 48 hrs by propidium iodide uptake assay. It counts as cell-based. Also on record: concentration or dose not given beside the values.
Chain of Transient receptor potential cation channel subfamily M member 7 (Mus musculus) (Q923J1 whole entry): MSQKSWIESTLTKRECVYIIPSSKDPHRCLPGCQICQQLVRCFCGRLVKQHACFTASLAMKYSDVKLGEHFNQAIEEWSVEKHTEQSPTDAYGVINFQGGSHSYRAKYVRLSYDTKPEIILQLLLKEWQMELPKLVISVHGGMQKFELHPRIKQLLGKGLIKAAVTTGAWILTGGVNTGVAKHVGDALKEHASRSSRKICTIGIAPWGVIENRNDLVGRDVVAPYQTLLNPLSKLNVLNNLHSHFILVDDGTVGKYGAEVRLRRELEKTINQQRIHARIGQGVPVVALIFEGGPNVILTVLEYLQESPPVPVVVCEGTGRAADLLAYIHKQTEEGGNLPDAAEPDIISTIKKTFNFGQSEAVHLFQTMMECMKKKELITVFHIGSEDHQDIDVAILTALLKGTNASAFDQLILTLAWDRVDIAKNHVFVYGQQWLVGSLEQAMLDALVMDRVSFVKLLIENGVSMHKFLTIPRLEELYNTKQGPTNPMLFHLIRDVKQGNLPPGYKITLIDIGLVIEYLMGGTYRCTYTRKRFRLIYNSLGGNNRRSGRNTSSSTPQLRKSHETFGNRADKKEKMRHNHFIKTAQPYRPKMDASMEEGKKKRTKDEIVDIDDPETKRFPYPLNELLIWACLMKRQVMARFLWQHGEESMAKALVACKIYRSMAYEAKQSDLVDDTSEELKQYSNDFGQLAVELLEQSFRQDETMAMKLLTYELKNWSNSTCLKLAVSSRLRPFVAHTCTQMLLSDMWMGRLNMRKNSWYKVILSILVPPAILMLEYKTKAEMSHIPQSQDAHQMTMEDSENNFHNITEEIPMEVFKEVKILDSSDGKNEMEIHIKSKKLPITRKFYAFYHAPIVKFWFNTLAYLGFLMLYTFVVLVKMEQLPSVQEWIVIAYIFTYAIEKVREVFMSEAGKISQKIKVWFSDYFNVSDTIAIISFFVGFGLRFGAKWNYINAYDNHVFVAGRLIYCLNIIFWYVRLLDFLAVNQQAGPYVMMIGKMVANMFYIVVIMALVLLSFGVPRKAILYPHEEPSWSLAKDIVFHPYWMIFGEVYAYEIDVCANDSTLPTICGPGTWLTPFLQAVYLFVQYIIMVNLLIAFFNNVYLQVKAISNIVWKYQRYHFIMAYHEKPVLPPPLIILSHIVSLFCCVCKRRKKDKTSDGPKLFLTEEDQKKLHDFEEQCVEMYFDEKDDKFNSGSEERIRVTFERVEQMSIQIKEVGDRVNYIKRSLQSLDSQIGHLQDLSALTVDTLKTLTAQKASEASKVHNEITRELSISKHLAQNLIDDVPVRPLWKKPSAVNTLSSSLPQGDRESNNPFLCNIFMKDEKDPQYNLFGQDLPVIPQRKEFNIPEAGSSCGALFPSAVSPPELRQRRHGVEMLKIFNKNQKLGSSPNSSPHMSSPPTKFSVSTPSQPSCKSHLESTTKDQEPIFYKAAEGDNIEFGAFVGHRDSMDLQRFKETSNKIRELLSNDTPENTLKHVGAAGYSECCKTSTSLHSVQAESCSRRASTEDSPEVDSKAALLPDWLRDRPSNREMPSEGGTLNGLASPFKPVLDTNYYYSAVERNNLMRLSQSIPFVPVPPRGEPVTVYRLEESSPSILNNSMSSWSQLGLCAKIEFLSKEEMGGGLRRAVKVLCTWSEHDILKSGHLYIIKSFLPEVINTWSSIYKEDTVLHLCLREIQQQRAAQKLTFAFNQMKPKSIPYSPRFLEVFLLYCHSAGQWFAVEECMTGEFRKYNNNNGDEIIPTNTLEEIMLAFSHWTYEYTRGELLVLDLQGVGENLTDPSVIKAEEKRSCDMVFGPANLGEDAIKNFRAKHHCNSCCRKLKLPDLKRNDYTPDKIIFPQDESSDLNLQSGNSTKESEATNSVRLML
Details: not given
The inhibition is the relative decrease from the control value, in per cent. Turning to `O=C1C(c2ccccc2)=C(O)C2C=CC=C3c4ccccc4N1C32` (configuration not stated), the inhibition entry is “Active”. In the case of `COc1ccc(C[C@H](N)C(=O)N[C@H]2[C@@H](O)[C@H](n3cnc4c(N(C)C)ncnc43)O[C@@H]2CO)cc1`, the inhibition result was “Dose-dependent effect”. Still for that read-out and setting: in the case of `CCn1cnc2c(Nc3cccc(Cl)c3)nc(N[C@@H]3CCCC[C@@H]3N)nc21` (relative stereo) it was “Dose-dependent effect”; in that of `COc1cc2c(c(OC)c1OC)-c1ccc(OC)c(=O)cc1[C@@H](NC(C)=O)CC2`, “Active”. Same read-out and setting: for `Cc1cc(C2CCCCC2)n(O)c(=O)c1` the value was “Active”.

The assay is the same for the next values; noted with them: concentration not given here.
With `O=C(c1cccs1)N1CCCN(Cc2cccc3ccccc23)CC1`, the inhibition came out at 80%. On to `CCOC(=O)c1c(C)csc1NC(=O)CSc1ccc(Cl)cc1`, for which the inhibition worked out at 50%.

As to `O=S(=O)(c1cc(Cl)sc1Cl)N1CCN(CCc2ccccc2)CC1`, the inhibition is less than 30%. Regarding `Fc1ccc(CN2CCN(Cc3c[nH]c4ccccc34)CC2)cc1`, the inhibition is 70%. On the same count and under the same terms, for `O=C1CC(c2ccccc2)CC(=O)N1c1ccc(Oc2ccc(Cl)cc2)cc1` the value was less than 30%; for `Cc1ccc(C(=O)Nc2ccc(Oc3ccc(C(C)(C)C)cc3)nc2)cc1`, 70%; for `CC(c1ccco1)N(C(=O)c1sc2ccccc2c1Cl)c1ccccn1` (configuration not stated), less than 30%. In the case of `CC(C)(C)c1ccc(OCc2ncc(S(=O)(=O)c3ccccc3)c(N)n2)cc1`, the inhibition was less than 30%.

`COc1cc2c(cc1OCC(=O)Nc1ccc(C)cc1)C=CC(C)(C)O2`: the inhibition is 30%. For the compound `O=C(Nc1ccc2ccccc2n1)c1ccc(Cl)cc1`, the inhibition came out at 50%.

For `CC[n+]1c(/C=C/c2ccc(OC)cc2)ccc2ccccc21`, the inhibition was less than 30%. Consider `Oc1cc(C(F)(F)F)nc(SCc2ccccc2)n1`, for which the inhibition was 80%. In the case of `[O-][S+](c1ccc(Cl)cc1)c1ccc(-c2ccccn2)s1` (configuration not stated), the inhibition is less than 30%. For `Cc1onc(-c2c(Cl)cccc2Cl)c1C(=O)Nc1cccc2nsnc12`, the inhibition is 30%. `O=C(Oc1ccc(Oc2ccccc2)cc1)N1CCC(OC(=O)n2ccnc2)CC1`: the inhibition was less than 30%. On the same count and under the same terms, for `Cc1cc(C)c(-n2nnnc2SCC(=O)Nc2ccccc2Cl)c(C)c1` the value was less than 30%; for `CC(=O)C(C#N)c1nc(-c2ccc(F)cc2)cs1` (configuration not stated), 70%; for `CN1CCN(NC(NC(=O)c2cccnc2)(C(F)(F)F)C(F)(F)F)CC1`, less than 30%.

In the case of `CCc1cc2c(Sc3nnc(N)s3)ncnc2s1`, the inhibition worked out at 60%. As for `Brc1cn[nH]c1/C=N/Nc1nc(-c2ccccc2)cs1`, the inhibition was 50%. For `O=C(/C(=N/Nc1ccc([N+](=O)[O-])cc1)C(=O)C(F)(F)F)c1cccs1`, the inhibition came to 40%. For the compound `COc1ccc(C(=O)Nc2c(-c3cccc(C(F)(F)F)c3)c(C(F)(F)F)nn2C)cc1OC`, the inhibition is less than 30%.

Regarding `C#Cc1cccc(NC(=O)c2c(-c3c(Cl)cccc3Cl)noc2C)c1`, the inhibition is less than 30%. In the case of `N=C(NS(=O)(=O)c1cc(Cl)c(Oc2ccc([N+](=O)[O-])cc2Cl)c(Cl)c1)c1cccnc1`, the inhibition turned out to be 70%. `c1ccc(/N=c2/[n-]n(-c3ccccc3)c[n+]2-c2ccccc2)cc1`: the inhibition is less than 30%. Take `O=[N+]([O-])C1=Cc2c(ccc3ccccc23)OC1c1c(Cl)cccc1Cl` (configuration not stated): the inhibition came out at 60%.

Turning to `c1ccc(CSc2nccc(-c3ccc4c(c3)CCO4)n2)cc1`, the inhibition is 70%. For `COc1ccc(Nc2cc(=O)n(-c3ccccc3)c3c2c(=O)n(C)c(=O)n3C)cc1`, the inhibition was 60%. On the same count and under the same terms, for `N#Cc1cc(CCCCc2cc(C#N)c3ccccc3c2)cc2ccccc12` the value was less than 30%; for `CC(=O)Nc1ccc(S(=O)(=O)NNc2c(Cl)cncc2Cl)cc1Cl`, 50%.

Turning to `O=C(c1sc2ccccc2c1Cl)N1CCc2ccccc2C1`, the inhibition amounted to 70%. Turning to `CC(C)(C)S(=O)(=O)/C(C#N)=C/N/N=C/c1ccccc1Cl`, the inhibition was less than 30%.

For the compound `O=C(CC12CC3CC(CC(C3)C1)C2)N1CCOCC1`, the inhibition is less than 30%. In the case of `COc1c(C(C)(C)C)cc(/N=C/c2ccccc2O)c(C)c1/N=C/c1ccccc1O`, the inhibition was found to be 60%. On to `N#Cc1ccc2c(c1)Sc1ccccc1N2`, for which the inhibition was found to be 60%.

Turning to `Cc1cc(-c2nc(-c3ccc(C(C)(C)C)cc3)no2)no1`, the inhibition stood at 30%.

`CCNC(=O)C(Cc1ccccc1)NC(=O)OC(C)(C)C` (configuration not stated): the inhibition turned out to be 30%. With `CCOC(=O)C(=CNNS(=O)(=O)c1cc(C(F)(F)F)cc(C(F)(F)F)c1)C(=O)OCC`, the inhibition came out at 40%. As for `O=C(CSc1nccc(-c2cc(-c3ccc(Cl)cc3Cl)no2)n1)Nc1ccc(Cl)cc1`, the inhibition was 30%. For the compound `CN(C(=O)c1cnc(Oc2ccc(Cl)cc2)cc1C(F)(F)F)c1ccc(Cl)c(Cl)c1`, the inhibition was determined as 60%. As for `COc1ccc(-c2[nH]ncc2CN2CCC(O)(c3ccc(Cl)cc3)CC2)cc1`, the inhibition was less than 30%. Consider `Cc1nc(-c2ccc(S(=O)(=O)Nc3cccc(S(N)(=O)=O)c3)s2)cs1`, for which the inhibition is less than 30%. Still for that read-out and setting: for `CN1c2ccsc2C(O)=C(C(=O)Nc2cccc(Cl)c2)S1(=O)=O` the value was less than 30%; for `N#CC(C#N)=CNc1cc(C(F)(F)F)ccc1N1CCCC1`, 40%. In the case of `Cc1ccc(S(=O)(=O)NCCN2CCN(C(=O)OC(C)(C)C)CC2)cc1`, the inhibition was less than 30%. As for `CC(C)c1ccc(NC(=O)c2c(-c3ccccc3)nnc3ccccc23)cc1`, the inhibition was less than 30%. `Cc1ccc(Oc2ccc(C(F)(F)F)cc2[N+](=O)[O-])c2c1CCC2`: the inhibition was less than 30%. Take `O=C(O)CSc1cc(C(F)(F)F)nc2ccccc12`: the inhibition was 30%.

With `CC1CCN(CC(=O)Nc2ccc(Cl)cc2C(=O)c2ccccc2Cl)CC1`, the inhibition was 70%. Regarding `Cc1cc(O)nc2c1c(C)nn2C`, the inhibition was less than 30%. Still for that read-out and setting: in the case of `CC(C)(C)c1cc2nc(C(F)(F)F)cc(N3CCN(S(=O)(=O)c4ccccc4)CC3)n2n1` it was less than 30%; in that of `CSC(SC)=C(C#N)C(=O)c1ccccc1Cl`, less than 30%; in that of `Cc1csc(NC(=O)C(F)(F)F)c1C(N)=O`, 50%. As for `COC(=O)c1cc(C)nc(Sc2ccccc2NC(=O)c2ccccc2)n1`, the inhibition was less than 30%.

As to `O=S(=O)(Cc1nc2ccc(Cl)cc2s1)CS(=O)(=O)Nc1nc2ccc(Cl)cc2s1`, the inhibition stood at 70%. Consider `O=S1(=O)CC=C(S(=O)(=O)c2ccccc2)C1`, for which the inhibition is less than 30%.

Consider `CSc1nnc(CN2C(=O)CSc3ccc(C(F)(F)F)cc32)n1C`, for which the inhibition is less than 30%. Turning to `CC(C)(C)c1ccc(-c2nc(CSc3ccc(Cl)cc3)no2)s1`, the inhibition came to 60%. In the case of `Cc1c(-c2nc(-c3ccc(C(C)(C)C)cc3)no2)n(C)oc1=O`, the inhibition is less than 30%. With `COc1ccc(NC(=S)Nc2ccc(C)c(NS(C)(=O)=O)c2)cc1`, the inhibition amounted to 70%. Turning to `CCCCCc1ccc(S(=O)(=O)Nc2ccccc2C(=O)NCC2CC2)cc1`, the inhibition was determined as 60%. Turning to `CS/C(=N\c1ccc(C)cc1)Nc1ccc(C)cc1`, the inhibition worked out at 50%.

Turning to `CCCCCCCCOc1ccc(S)nn1`, the inhibition was less than 30%. As for `COc1ccc(/C=N/NS(=O)(=O)c2ccc(Cl)cc2)cc1OC`, the inhibition came out at 80%. Consider `CCOC(=O)C(=CNc1cc(OC)cc(C(F)(F)F)c1)C(=O)OCC`, for which the inhibition worked out at 70%. Take `COc1ccc(CCN2C(=O)CS/C2=N\c2ccc(C(C)(C)C)cc2)cc1OC`: the inhibition is less than 30%. As to `COc1ccccc1N1CCN(Cc2c[nH]c3ccccc23)CC1`, the inhibition is 70%. Consider `CC(C)NC(=O)n1nccc1-c1cc(-c2ccccc2)no1`, for which the inhibition was less than 30%. With `O=C(Nc1ccc(Oc2ccccc2)cc1)Nc1cccs1`, the inhibition stood at 70%.

On to `O=c1ccsn1-c1ccc(F)c(Cl)c1`, for which the inhibition was less than 30%. Still for that read-out and setting: for `Cc1onc(-c2ccccc2Cl)c1C(=O)NNc1cccc(C(F)(F)F)n1` the value was less than 30%; for `Cc1cc(Sc2ncnc3cc(-c4ccc(F)cc4)sc23)c(C)cc1Cl`, less than 30%.

In the case of `CC(C)NC(=O)n1ccc(-c2nn(-c3ccc(F)cc3)ccc2=O)n1`, the inhibition was less than 30%.

In the case of `COc1ccccc1N1CCN(Cc2c[nH]nc2-c2ccccc2)CC1`, the inhibition is 80%. In the case of `CCc1c(O)c2ccccc2n(C)c1=O`, the inhibition was determined as 50%. `CC1(C)CC(=O)C=C(Sc2ccc(C#N)cc2[N+](=O)[O-])S1`: the inhibition was 50%.

For the compound `C/C(=N\NC1=NCCN1Cc1ccccc1)c1ccc(C)cc1`, the inhibition is 70%.

Turning to `Oc1cc(C(F)(F)F)nc2ccc(F)cc12`, the inhibition amounted to 80%.

On to `COc1ccc(-c2[nH]ncc2CN2CCN(c3ccc(F)cc3)CC2)cc1`, for which the inhibition was less than 30%.

With `N=C(NC(=O)c1cccc(Cn2cc(C(F)(F)F)ccc2=O)c1)c1ccc(Cl)cc1`, the inhibition is 40%. With `COc1ccccc1C1CCN(S(=O)(=O)c2ccc(C(C)C)cc2)CC1`, the inhibition worked out at 80%. For `COc1cc(OC)cc(C(C)(C)OC(=O)NCCC(=O)O)c1`, the inhibition was less than 30%.

Take `CN1c2ccccc2C(C)(C)C12C=Cc1c(ccc3ccccc13)O2` (configuration not stated): the inhibition is less than 30%. On to `O=c1c(Cc2ccc(Br)cc2)csc2ccccc12`, for which the inhibition is less than 30%.

Turning to `CN(/N=C/Cc1nnnn1-c1ccc(Cl)cc1)c1ccccc1`, the inhibition was less than 30%. As for `CSC1=N/C(=C\c2ccc(Cl)cc2)C(=O)N1Cc1ccco1`, the inhibition is 60%. `Cc1ccc(-c2n[nH]cc2Sc2ccc(C(F)(F)F)cn2)cc1`: the inhibition is less than 30%. `O=C(/C=N/O)Nc1ccccc1F`: the inhibition is less than 30%. For the compound `O=c1ccn(-c2ccc(F)cc2)nc1-c1ccnc(SCc2ccc(C(F)(F)F)cc2)n1`, the inhibition is less than 30%.

Turning to `CC(C)Cc1ccc(C(C)c2nnc(-c3cccc([N+](=O)[O-])c3)o2)cc1` (configuration not stated), the inhibition turned out to be 50%.

With `O=C(/C=C/c1ccc(OC(F)(F)F)cc1)NCc1ccco1`, the inhibition worked out at 60%. Same read-out and setting: for `Nc1nc(-c2ccc(-c3ccccc3)cc2)cs1` the value was 40%.
